Test results: ChEMBL document CHEMBL1149736, “A new acylated N-glycosyl lactam from Aristolochia contorta” (1992)
Values after ≈ are worked out from the molar mass of the structure shown.

Legend:
Micrococcus luteus = test: Antibacterial activity against Sarcina lutea; type: functional
Bacillus subtilis = test: Antibacterial activity against Bacillus subtilis; type: functional

MIC (Micrococcus luteus) | MIC (Bacillus subtilis) | SMILES
5 µg/mL (≈ 15.5 µM) | – | O=C(N[C@H](CO)[C@H](O)c1ccc([N+](=O)[O-])cc1)C(Cl)Cl [CHLORAMPHENICOL]
175 µg/mL (≈ 291 µM) | 43.8 µg/mL (≈ 72.8 µM) | COc1cccc2c1cc1c3c(cc4c(c32)OCO4)C(=O)N1[C@@H]1O[C@H](COC(=O)/C=C/c2ccc(O)cc2)[C@@H](O)[C@H](O)[C@H]1O
